Experimental data as given in patent publication US20250084062A1, “SUBSTITUTED QUINOLINE DERIVATIVE” (ASTELLAS PHARMA INC., priority 2021, published 2025).
Counter-ions that a name gives are not always drawn. Like-named read-outs stand apart in the source and are kept apart here.

Tested on: acetylcholine receptor clustering in C2Cl2 cells
Experiment: Induction of acetylcholine receptor clustering in mouse myoblasts C2Cl2 cells (Test Example 1)
Format: cell-based
Settings: for Emax / EC50: Mus musculus; for Emax: Myoblast, read-out: Max; for EC50: Myotube
Method: Test Example 1: Evaluation of the Induction of Acetylcholine Receptor Clustering in Mouse Myoblasts C2Cl2 Cells
Induction of acetylcholine receptor clustering by the test compound was evaluated by using fluorescently-labeled Bungarotoxin to image and quantify the acetylcholine receptor cluster region induced by the differentiation of myoblasts into myotubes, and measure the change in area. The following test method was optimized with reference to various reports including FEBS let., 586, 3111-3116 (2012). When a concentration response curve is obtained by plotting the logarithmic concentration of the test compound on the horizontal axis and the ratio of the area of acetylcholine receptor cluster region on the vertical axis, the inducing action of the test compound can be determined.
A concentration response curve as an index indicating acetylcholine receptor clustering inducing action of the test compound in mouse C2Cl2 cells was prepared. C2Cl2 cells (ATCC Number: CRL-1772) were seeded at about 5000 cells/well on a 384-well plate (354667; Corning) coated with type I collagen and allowed to incubate at 37 degrees Celsius overnight in DMEM+20% FBS+1% penicillin/streptomycin medium. The following day, the medium was removed and replaced with a differentiation medium containing DMEM+2% FBS+1% penicillin/streptomycin, and allowed to incubate at 37 degrees Celsius for 4 days. The test compound was dissolved in DMSO and added to a differentiation medium containing 0.1 ng/ml Agrin (550-AG-100; R&D systems) such that the final concentration was […] (3-fold serial dilution) or 0.00017 to 3.3 μM (3-fold serial dilution). The final concentration of DMSO was 0.3%. After the 4 days of incubation, the differentiation medium was replaced with a differentiation medium containing the test compound and 0.1 ng/ml Agrin or a differentiation medium containing 0.1 ng/ml Agrin or 10 ng/ml Agrin alone, and allowed to incubate at 37 degrees Celsius overnight. The next day, 10 μl of DMEM containing Bungarotoxin-Alexa488 (B13422; Life technologies) was added to the differentiation medium containing test compound and Agrin and Agrin alone so that the final concentration of Bungarotoxin-Alexa488 was 1 μg/ml, and was allowed to incubate at 37 degrees Celsius for 1 hour to label the acetylcholine receptor. After removing all the medium, 4% PFA was added to each well and allowed to incubate at room temperature for 10 minutes, then washed with PBS, and allowed to incubate at room temperature for 30 minutes in PBS containing 5% goat serum and 0.3% Triton X-100. After removing the PBS solution, PBS-Tween20 (28352; Thermo fisher scientific) containing Anti-Myosin Heavy Chain eFluor (registered trademark) 660 (50-6503-82; eBioscience) and DAPI (340-07971; Dojindo) was added to each well and allowed to incubate at room temperature for 1 hour to label the myotubes and nuclei. After washing three times with PBS-Tween20, the fluorescence was imaged using IN Cell Analyzer 6000 (GE Healthcare). […] The response of control group (1) was regarded as 0% and the response of the control group (2) was regarded as 100%. For quantification, the signal of only the acetylcholine receptor present in the myotube was used to eliminate non-specific fluorescence.
EC50 and Max value were used as indicators of activity in order to quantitatively evaluate the inducing action of the test compound on acetylcholine receptor clustering. EC50 value is a test compound concentration which indicates 50% in terms of the area of acetylcholine receptor cluster region compared to that of 10 ng/ml Agrin (regarded as 100%) in the concentration response curve. EC50 was calculated by nonlinear regression analysis from the concentration response curve using the area of the cluster region of the test compound as an index. Max value is the maximum response value. […]

[1] = maximum response, area of acetylcholine receptor cluster region vs 10 ng/ml Agrin (100%), 0.1 ng/ml Agrin = 0%
[2] = C2Cl2 myotubes, with 0.1 ng/ml Agrin, concentration giving 50% of cluster area of 10 ng/ml Agrin (100%), read-out: EC50

SMILES	Emax [1] [%]	EC50 [2] [nM]	also measured
Cc1c(F)c(-c2c(F)cc(S(=O)(=O)N3CCCC3(C)C)cc2F)nc2cc(C(=O)O)ccc12 [Example 26]	99.8	19	
Cc1cc(-c2c(F)cc(S(=O)(=O)N3CCC(F)CC3)cc2F)nc2nc(C(=O)N3CC4(CN(C)C4)C3)ccc12 [Example 46]	80.9	43	
Cc1c(F)c(-c2c(F)cc(S(=O)(=O)N3CC[C@H](F)C3)cc2F)nc2cc(C(=O)N3CC(C)(C(=O)O)C3)ccc12 [Example 11, 1-(2-{2,6-difluoro-4-[(3S)-3-fluoropyrrolidine-1-sulfonyl]phenyl}-3-fluoro-4-methylquinoline-7-carbonyl)-3-methylazetidine-3-carboxylic acid]	80.2	303	
Cc1c(F)c(-c2c(F)cc(S(=O)(=O)N3CCC(F)CC3)cc2F)nc2cc(C(=O)N3CC4(CN(C)C4)C3)ccc12 [Example 44]	81.8	5	
Cc1cc(-c2c(F)cc(S(=O)(=O)N3CC[C@H](F)C3)cc2F)nc2cc(C(=O)O)ccc12 [Example 1, 2-{2,6-difluoro-4-[(3S)-3-fluoropyrrolidine-1-sulfonyl]phenyl}-4-methylquinoline-7-carboxylic acid]	91.9	64	
CO[C@@H]1CN(S(=O)(=O)c2ccc(-c3cc(C)c4ccc(C(=O)O)cc4n3)c(F)c2)C[C@H]1F [Example 29]	46.2		response, % at 30 μM (at 30 μM, vs 10 ng/ml Agrin (100%)): 46.2% at 30 μM
Cc1cc(-c2ccc(S(=O)(=O)N3CC[C@H](F)C3)cc2C#N)nc2cc(C(=O)O)ccc12 [Example 30]	94.7	1120	
Cc1c(F)c(-c2c(F)cc(S(=O)(=O)N3CCCC34CC4)cc2F)nc2cc(C(=O)O)ccc12 [Example 25]	105	182	
Cc1cc(-c2c(F)cc(S(=O)(=O)N3CCCC3)cc2F)nc2cc(C(=O)O)ccc12 [Example 21]	97.3	147	
Cc1cc(-c2c(F)cc(S(=O)(=O)N3CC[C@H](F)C3)cc2F)nc2cc(C(=O)NC[C@H]3COCCN3)ccc12 [Example 52]	94.2	33	
Cc1c(F)c(-c2c(F)cc(S(=O)(=O)N3CCC[C@@H]3C)cc2F)nc2cc(C(=O)O)ccc12 [Example 24]	92.3	11	
CNCCNC(=O)c1ccc2c(C)cc(-c3c(F)cc(S(=O)(=O)N4CCC(F)CC4)cc3F)nc2n1 [Example 60]	99.2	11	
Cc1cc(-c2ccc(S(=O)(=O)N3C[C@@H](F)C[C@H]3CO)cc2F)nc2cc(C(=O)O)ccc12 [Example 28]	74.2	4030	
Cc1cc(-c2c(F)cc(S(=O)(=O)N3CC[C@H](F)C3)cc2F)nc2nc(C3CCC(C(=O)O)CC3)ccc12 (stereo partly shown) [Example 37]	70.1	3220	
Cc1cc(-c2c(F)cc(S(=O)(=O)N3CC[C@@H](F)C3)cc2F)nc2cc(C(=O)O)ccc12 [Example 22]	84.8	1900	
Cc1c(F)c(-c2c(F)cc(S(=O)(=O)N3CC[C@H](F)C3)cc2F)nc2cc(C(=O)N3CC4(CN(C)C4)C3)ccc12 [Example 45]	86.1	9	
Cc1cc(-c2c(F)cc(S(=O)(=O)N3CCC(F)CC3)cc2F)nc2nc(C(=O)O)ccc12 [Example 38]	78.5	724	
Cc1cc(-c2c(F)cc(S(=O)(=O)N3CC[C@H](F)C3)cc2F)nc2nc(C3CCN(C)CC3)ccc12 [Example 17, 2-{2,6-difluoro-4-[(3S)-3-fluoropyrrolidine-1-sulfonyl]phenyl}-4-methyl-7-(1-methylpiperidin-4-yl)-1,8-naphthyridine hydrochloride]	78.7	65	

SMILES	Emax [1] [%]	EC50 [2] [nM]	also measured
Cc1cc(-c2ccc(S(=O)(=O)N3CC[C@H](F)C3)cc2F)nc2cc(C(=O)NS(=O)(=O)C3CC3)ccc12 [Example 9, N-(cyclopropanesulfonyl)-2-{2-fluoro-4-[(3S)-3-fluoropyrrolidine-1-sulfonyl]phenyl}-4-methylquinoline-7-carboxamide]	34.9		response, % at 1.1 μM (at 1.1 μM, vs 10 ng/ml Agrin (100%)): 34.9% at 1.1 μM
Cc1cc(-c2ccc(S(=O)(=O)N3CC[C@H](F)C3)cc2F)nc2cc(OC[C@@H](O)CO)ccc12 [Example 64]	107	24	
Cc1cc(-c2ccc(S(=O)(=O)N3CCCCC3)cc2)nc2cc(C(=O)O)ccc12 [Example 47]	102	428	
Cc1cc(-c2ccc(S(=O)(=O)N3CC[C@H](F)C3)cc2F)nc2cc(OCCN)ccc12 [Example 13, 2-[(2-{2-fluoro-4-[(3S)-3-fluoropyrrolidine-1-sulfonyl]phenyl}-4-methylquinolin-7-yl)oxy]ethan-1-amine hydrochloride]	117	3	
Cc1cc(-c2c(F)cc(S(=O)(=O)N3CCC(F)CC3)cc2F)nc2cc(C(=O)N3CC4(CN(C)C4)C3)ccc12 [Example 3, {2-[2,6-difluoro-4-(4-fluoropiperidine-1-sulfonyl)phenyl]-4-methylquinolin-7-yl}(6-methyl-2,6-diazaspiro[3.3]heptan-2-yl) methanone]	91.8	2	
CNCCCc1ccc2c(C)c(F)c(-c3c(F)cc(S(=O)(=O)N4CC[C@H](F)C4)cc3F)nc2c1 [Example 16, 3-(2-{2,6-difluoro-4-[(3S)-3-fluoropyrrolidine-1-sulfonyl]phenyl}-3-fluoro-4-methylquinolin-7-yl)-N-methylpropan-1-amine hydrochloride]	91.1	45	
Cc1cc(-c2c(F)cc(S(=O)(=O)N3CC[C@H](F)C3)cc2F)nc2cc(/C=C/C(=O)O)ccc12 [Example 35]	99.5	20	
Cc1cc(-c2c(F)cc(S(=O)(=O)N3CC[C@H](F)C3)cc2F)nc2cc(C(=O)NC3CCNC3)ccc12 (stereo partly shown) [Example 53]	77.9	96	
CNCCNC(=O)c1ccc2c(C)cc(-c3c(F)cc(S(=O)(=O)N4CC[C@H](F)C4)cc3F)c(F)c2n1 [Example 15, 7-{2,6-difluoro-4-[(3S)-3-fluoropyrrolidine-1-sulfonyl]phenyl}-8-fluoro-5-methyl-N-[2-(methylamino)ethyl]quinoline-2-carboxamide hydrochloride]	105	2	
Cc1cc(-c2ccc(S(=O)(=O)N3CCC[C@H](O)C3)cc2F)nc2cc(C(=O)O)ccc12 [Example 50]	70.5	3520	
Cc1cc(-c2c(F)cc(S(=O)(=O)N3CCC(F)CC3)cc2F)nc2cc(C(=O)NCCCN)ccc12 [Example 58]	89.6	33	
CNCCNC(=O)c1ccc2c(C)cc(-c3c(F)cc(S(=O)(=O)N4CC[C@H](F)C4)cc3F)nc2n1 [Example 61]	92.4	26	
Cc1cc(-c2c(F)cc(S(=O)(=O)N3CC[C@H](F)C3)cc2F)cc2cc(C(=O)O)ccc12 [Example 67]			Emax: 94.3%; EC50: 15 nM
Cc1cc(-c2ccc(S(=O)(=O)N3CC[C@H](F)C3)cc2F)nc2c(F)c(N3CCNCC3=O)ccc12 [Example 55]	38.9	7160	
Cc1cc(-c2ccc(S(=O)(=O)N3CCCCC3)cc2)nc2cc(OCCO)ccc12 [Example 63]	104	165	
Cc1cc(-c2c(F)cc(S(=O)(=O)N3CCC(F)CC3)cc2F)nc2cc(C(=O)NC3CN(C)C3)ccc12 [Example 41]	87	52	
Cc1cc(-c2c(F)cc(S(=O)(=O)N3CC[C@H](F)C3)cc2F)nc2cc(CCC(=O)O)ccc12 [Example 34]	94.1	16	
